Reference: US6057294A, “Peptide” (Northern Sydney Area Health Service of Pacific Highway, priority 1995, dated 2000)
Ends that are not written are not given here.

Assays:
[1] = system: adjuvant induced arthritis in rats; assay: Adjuvant induced arthritis in rats; assay type: in vivo, rat; conditions: for EFFECT: peptides 7 mg/rat, CS 50 mg/kg, DXM 2 mg/kg, given with MTB adjuvant; for tail thickness: n = 5
[2] = system: 2B4.11 T-cell activation (IL-2 production); assay: Antigen presentation assay (IL-2 production by 2B4.11 T-cells, CTLL proliferation readout); assay type: cell-based; conditions: 100 μM
Excerpt: An antigen presentation assay (described below) examined the ability of a number of peptides to inhibit T-cell activation following antigen recognition, by measuring the product of T-cell activation, Interleukin-2 (IL-2).
Material. The following cell lines were used: 2B4.11, a T-cell hybridoma that expresses a complete antigen receptor on the cell surface (Samelson et al., 1983) and produces IL-2 following antigen recognition (cytochrome c). Interleukin-2 dependent T-cell line (CTLL) for conventional biological IL-2 assays; and the B-cell hybridoma cell line LK 35.2 (LK, I-E^k bearing; Kappler et al., 1982) which acts as the antigen presenting cell. The hybridomas were grown in TCM. Cytochrome c (Sigma, USA) was added in the media to give a final concentration of 50 μM in the antigen presenting assay.
Peptides examined included: core peptide, seven other control peptides from a variety of sources having an equivalent length to core peptide and peptides A, B, C, D, E and F. The final concentration of the peptides in the antigen presentation assay was examined at several levels ranging from 10 μM to 100 μM.
Method. […] Supernatants were recovered and IL-2 content determined by CTLL proliferation. […] In addition to measuring ^3 H-thymidine incorporation, IL-2 measurements (IU/ml) were also determined. […]

[3] = system: TCR on 2B4.11 cells; assay: TCR assembly and cell surface expression on T-cells by flow cytometry; assay type: cell-based
Protocol: The T-cell hybridoma 2B4.11 which expresses a complete TCR on the cell surface was used as a positive control to assess the effects of peptides on TCR expression. The cells were grown in TCM. The β-deficient variant 21.2.2 and the β- and .zeta.-deficient cell line 3.12.29, derived by repetitive subcloning of 2B4.11 cells (Sussman et al., 1988) and lacking TCR expression were used as negative controls.
Peptides tested included core peptide, lipopeptides and a peptide from tumor necrosis factor receptor termed 558 (used as a negative control). […]
The following antibodies were used for immuno-precipitation and flow cytometry analysis: Mouse IgG2a monoclonal antibody (MAb) against TCR-α chain of the T-cell hybridoma 2B4 (A2B4-2, Samelson et al., 1983), MAb against 2B4.11 TCR-β chain (K)25), hamster IgG anti-CD3-ε MAb (145-2C11 [2C11], Leo et al., 1987), rabbit anti-CD3-ε polyclonal antiserum raised against purified mouse CD3-ε (127, Minami et al., 1987), anti-CD3-δ polyclonal antibody (R9) raised in goat immunized with a COOH-terminal peptide of the mouse CD3-δ chain (Samelson et al., 1986).
FACS analysis: 1×10^6 (2B4.11, 21.2.2) cells were incubated with a number of separate peptides and lipopeptides in a final concentration of 10 μM overnight. The cells were then wvashed with PBS and incubated with 50 μl primary antibody (A2B4 or 2C11) for 30 mins at 4° C. […]

[4] = system: experimental allergic neuritis in Lewis rats; assay: Experimental allergic neuritis (EAN); assay type: in vivo, rat; conditions: peptide added to immunisation emulsion at 70 mg/ml
[5] = system: diabetes in NOD/Lt (F) mice; assay: Cyclophosphamide induced diabetes in NOD/Lt (F) mice; assay type: in vivo, mouse; conditions: for PERCENTAGE OF MICE DEVELOPING DIABETES: 250 μg s.c. on Day -1, 0 and 1, n = 16
Protocol: In yet another model of T-cell mediated disease the effects of subcutaneously injected core peptide on the induction of diabetes in NOD/Lt (F) mice was tested "blind" by an independent experimenter (Prof L Harrison, WEHI, Melbourne). NOD/Lt(F) mice 10 weeks old at experimental Day 0. This is a high-incidencestrain commonly used as an animal model for diabetes. Core peptide dissolved in squalane at a stock concentration of 3.33 mg/ml. Ovalbumin used as a control was suspended in squalane at a stock concentration of 3.33 mg/ml. Peptide and ovalbumin were "solubilised" just prior to injection, with vortexing. A total of 250 μg (75 μl) was injected subcutaneously on the right flank on Day -1, 0 and 1. Mice were given intraperitoneal cyclophosphamide in water at 300 mg/kg on Day 0. Blood glucose measurements were taken on Day 0, 10, 14 and 21. There were 16 mice in the treatment group and 16 in the ovalbumin control group.

## C[C@@H]1C[C@H]2[C@@H]3CCC4=CC(=O)C=C[C@]4(C)[C@@]3(F)[C@@H](O)C[C@]2(C)[C@@]1(O)C(=O)CO [DXM, dexamethasone, reference compound]
[1]; 2 mg/kg
  onset of arthritis delayed by: 3 to 4 days
[1]
  EFFECT: No effect

## CCCCCCCCCCCCCCCC(=O)O [Palmitic acid, reference compound]
[2]
  effect on IL-2 production: did not affect IL-2 production

## GLRILLLKV [core peptide]
[3]; 10 μM, overnight, 2B4.11 cells
  cell surface expression of TCR: did not alter the cell surface expression
[3]; 100 μM, incubation 1-10 days
  T-cell surface antigen receptor expression: no change in T-cell surface antigen receptor expression
[2]
  reduction in IL-2 production compared to control: 15%-30%
[1]; 1.7 mg
  EFFECT OF PEPTIDE: No effect
[1]; 3.5 mg
  EFFECT OF PEPTIDE: Protective
[1]; 7 mg
  EFFECT OF PEPTIDE: Protective
[1]; DAY 5, MTB + peptide
  tail thickness: 7.62 mm
[1]; DAY 10, MTB + peptide
  tail thickness: 8.24 mm
[1]; DAY 15, MTB + peptide
  tail thickness: 8.76 mm
[1]; DAY 20, MTB + peptide
  tail thickness: 8.96 mm
[1]; DAY 25, MTB + peptide
  tail thickness: 9.10 mm
[1]; compared with MTB alone
  ulceration and inflammation at the site of injection: not present
[1]; comparison among peptides
  effect on adjuvant arthritis: Best results
[1]; first experiment, 3 rats per group, 0.1 ml suspension in adjuvant, after 18 days
  animals with no evidence of arthritis: 2/3
[1]
  EFFECT: Protective
[1]; rat, in vivo
  difference in tail measurements versus saline injected rats: not statistically significant
[4]
  induction and clinical severity of EAN: delayed induction and clinical severity of disease
[5]; DAY 0
  PERCENTAGE OF MICE DEVELOPING DIABETES: 0%
[5]; DAY 10
  PERCENTAGE OF MICE DEVELOPING DIABETES: 0%
[5]; DAY 14
  PERCENTAGE OF MICE DEVELOPING DIABETES: 5%
[5]; DAY 21
  PERCENTAGE OF MICE DEVELOPING DIABETES: 12%
[5]; mouse, in vivo
  effect on the induction of autoimmune beta cell destruction (diabetes): protective effect

## Ovalbumin: Ovalbumin used as a control, suspended in squalane [reference compound]
[5]; DAY 0
  PERCENTAGE OF MICE DEVELOPING DIABETES: 0%
[5]; DAY 10
  PERCENTAGE OF MICE DEVELOPING DIABETES: 0%
[5]; DAY 14
  PERCENTAGE OF MICE DEVELOPING DIABETES: 42%
[5]; DAY 21
  PERCENTAGE OF MICE DEVELOPING DIABETES: 65%
